Laboratory results: ChEMBL document CHEMBL4184207, “Novel compounds with potent CDK9 inhibitory activity for the treatment of myeloma” (Bioorg Med Chem Lett, 2018)

Tests used:
CDK9/cyclin T1 = CDK9/cyclin T1 (Homo sapiens, UniProt P50750); assay: Inhibition of N-terminal GST-HIS6 fusion protein tagged human full length CDK9 (M1 to F372 residues)/N-terminal GST-HIS6 fusion protein tagged human Cyclin-T1 (M1 to K726 residues) expressed in Sf9 cells at 10 uM using TAMRA-Rbtide substrate and ATP incubated for 1 hr by fluorescent polarization assay
RPMI-8226 = assay: Antiproliferative activity against human RPMI8226 cells assessed as inhibition of cell proliferation incubated for 72 hrs by Cell-titer-Glo luminescent cell viability assay; type: functional, cell-based; settings: RPMI-8226, 72 h
[1] = biological target: CDK2/Cyclin A2 (Homo sapiens) (UniProt P24941+P20248); assay: Inhibition of human full length CDK2 (M1 to L298 residues)/human full length Cyclin-A2 (M1 to L432 residues) expressed in Sf9 cells at 1 uM using TAMRA-histone H1-derived peptide substrate and ATP incubated for 1 hr by fluorescent polarization assay
[2] = biological target: T1, Serine/threonine-protein kinase PLK1 (Homo sapiens, UniProt P53350); assay: Inhibition of human PLK1 kinase domain using 5-TAMRA-RGSFNDTLDFD-NH2 substrate and ATP incubated for 90 mins by fluorescent polarization assay
[3] = biological target: CDK7/Cyclin H/MNAT1 (Homo sapiens) (UniProt P51946+P50613+P51948); assay: Inhibition of N-terminal GST-HIS6 fusion protein tagged human CDK7 (M1 to F346 residues)/N-terminal HIS6-tagged human Cyclin-H (M1 to L323 residues)/N-terminal HIS6-tagged human MAT1 (M1 to S306 residues) expressed in Sf9 cells at 1 uM using RB-CTF substrate and ATP incubated for 1 hr by fluorescent polarization assay
[4] = biological target: T1, Serine/threonine-protein kinase PLK1; assay: Inhibition of human PLK1 kinase domain at 10 uM using 5-TAMRA-RGSFNDTLDFD-NH2 substrate and ATP incubated for 90 mins by fluorescent polarization assay

T1 sequence (P53350 whole entry, the tested form may be a part): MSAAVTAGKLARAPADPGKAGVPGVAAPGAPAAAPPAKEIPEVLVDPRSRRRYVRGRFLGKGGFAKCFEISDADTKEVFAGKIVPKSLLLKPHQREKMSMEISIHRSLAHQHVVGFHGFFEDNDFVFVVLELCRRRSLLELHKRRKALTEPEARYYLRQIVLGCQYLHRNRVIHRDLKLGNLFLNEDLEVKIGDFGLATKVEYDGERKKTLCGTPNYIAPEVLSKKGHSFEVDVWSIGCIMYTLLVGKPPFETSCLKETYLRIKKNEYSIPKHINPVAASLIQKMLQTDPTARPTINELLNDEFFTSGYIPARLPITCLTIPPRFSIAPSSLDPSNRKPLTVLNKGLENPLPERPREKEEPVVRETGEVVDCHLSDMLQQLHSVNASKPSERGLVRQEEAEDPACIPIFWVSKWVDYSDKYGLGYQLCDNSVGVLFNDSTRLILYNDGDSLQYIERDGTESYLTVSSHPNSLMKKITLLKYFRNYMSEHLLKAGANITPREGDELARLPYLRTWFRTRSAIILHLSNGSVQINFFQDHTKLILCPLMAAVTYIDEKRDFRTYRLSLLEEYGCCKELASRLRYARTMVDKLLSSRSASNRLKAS
Sequence of CDK9/cyclin T1 (O60563 whole entry, the tested form may be a part): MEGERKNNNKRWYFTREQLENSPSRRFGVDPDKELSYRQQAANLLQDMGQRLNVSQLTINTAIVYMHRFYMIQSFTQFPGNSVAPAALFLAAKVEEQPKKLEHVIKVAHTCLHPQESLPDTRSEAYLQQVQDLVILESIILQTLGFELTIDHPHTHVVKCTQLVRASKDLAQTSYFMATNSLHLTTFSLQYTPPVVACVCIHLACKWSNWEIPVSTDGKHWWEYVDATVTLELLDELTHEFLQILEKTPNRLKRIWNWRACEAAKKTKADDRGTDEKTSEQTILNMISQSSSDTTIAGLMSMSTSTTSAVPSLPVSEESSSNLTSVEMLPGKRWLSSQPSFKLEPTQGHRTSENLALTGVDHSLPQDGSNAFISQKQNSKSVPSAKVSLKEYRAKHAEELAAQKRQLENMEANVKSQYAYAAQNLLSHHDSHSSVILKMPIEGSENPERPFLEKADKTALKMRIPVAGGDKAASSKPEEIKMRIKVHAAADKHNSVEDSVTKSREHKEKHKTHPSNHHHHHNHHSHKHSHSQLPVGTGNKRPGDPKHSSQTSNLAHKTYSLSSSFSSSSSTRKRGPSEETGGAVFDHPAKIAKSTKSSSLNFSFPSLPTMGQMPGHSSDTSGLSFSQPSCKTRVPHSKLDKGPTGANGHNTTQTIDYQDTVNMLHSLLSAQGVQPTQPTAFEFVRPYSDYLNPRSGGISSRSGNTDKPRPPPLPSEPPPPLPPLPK
Sequence of CDK9/cyclin T1 (P50750 whole entry, the tested form may be a part): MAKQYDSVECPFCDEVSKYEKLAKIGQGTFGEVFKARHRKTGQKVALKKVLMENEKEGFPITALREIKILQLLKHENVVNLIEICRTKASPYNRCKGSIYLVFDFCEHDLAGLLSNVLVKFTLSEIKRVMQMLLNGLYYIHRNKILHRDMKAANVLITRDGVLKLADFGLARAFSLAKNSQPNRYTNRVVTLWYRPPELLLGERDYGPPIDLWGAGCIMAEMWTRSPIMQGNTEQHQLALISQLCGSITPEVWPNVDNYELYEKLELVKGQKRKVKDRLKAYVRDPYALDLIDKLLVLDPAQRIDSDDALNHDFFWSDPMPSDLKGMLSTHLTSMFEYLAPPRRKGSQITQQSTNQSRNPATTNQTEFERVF

Compound	IC50 (CDK9/cyclin T1) [nM]	further results
COc1ccc(F)c(F)c1-c1ccnc(Nc2ccc(S(=O)(=O)Nc3onc(C)c3C)cc2)n1	1	inhibition [4]: 75%; inhibition [1]: 83%; IC50 [2]: 5910 nM; inhibition [3]: 2%
COc1cc(F)c(Nc2nccc(-c3ccc(F)cc3F)n2)cc1C(N)=O	> 12500	
CCOc1cc(Cl)ccc1-c1ccnc(Nc2ccc(S(=O)(=O)Nc3onc(C)c3C)cc2)n1	17	inhibition [4]: 5%
COc1cc(F)ccc1-c1ccnc(Nc2cccc(Cn3cnc4ccccc43)c2)n1	4	
COc1cc(F)c(F)cc1-c1ccnc(Nc2ccc(S(=O)(=O)Nc3nnc(C)s3)cc2)n1	10	
COc1ccc(-c2ccnc(Nc3ccc(S(=O)(=O)Nc4nnc(C)s4)cc3)n2)c(OC)c1	14	
COc1cccc(F)c1-c1ccnc(Nc2ccc(S(=O)(=O)Nc3nnc(C)s3)cc2)n1	2	inhibition [1]: 29%; IC50 [2]: > 12500 nM; inhibition [3]: 2%
COc1cc(F)c(Nc2nccc(-c3c(F)cccc3OC)n2)cc1C(N)=O	> 12500	IC50 (RPMI-8226): 20500 nM
Cc1noc(NS(=O)(=O)c2ccc(Nc3nccc(-c4ccc(Cl)cc4Cl)n3)cc2)c1C	50	
COc1cc(F)ccc1-c1cc(Nc2ccc(S(=O)(=O)Nc3onc(C)c3C)cc2)ncn1	40	
COc1cc(F)c(Nc2nccc(-c3cc(F)c(F)cc3OC)n2)cc1C(N)=O	> 12500	
COc1ccc(F)c(F)c1-c1ccnc(Nc2ccc(S(=O)(=O)Nc3nnc(C)s3)cc2)n1	0.4	inhibition [1]: 50%; IC50 [2]: > 12500 nM; IC50 (RPMI-8226): 11700 nM; inhibition [3]: 7%
COc1cc(F)c(Nc2nccc(-c3ccccc3OC)n2)cc1C(N)=O	1580	IC50 (RPMI-8226): 21500 nM
CCOc1cc(Cl)ccc1-c1ccnc(Nc2ccc(S(=O)(=O)Nc3nccs3)cc2)n1	378	
COc1cc(F)c(Nc2nccc(-c3ccc(F)cc3OC)n2)cc1C(N)=O	> 12500	
CCOc1cc(F)ccc1-c1ccnc(Nc2ccc(S(=O)(=O)Nc3nnc(C)s3)cc2)n1	2	

Compound	IC50 (CDK9/cyclin T1) [nM]	further results
COc1ccccc1-c1ccnc(Nc2ccc(S(=O)(=O)Nc3nnc(C)s3)cc2)n1	12	
COc1cc(F)c(-c2ccnc(Nc3ccc(S(=O)(=O)Nc4onc(C)c4C)cc3)n2)c(F)c1	21	
COc1cc(F)c(Nc2nccc(-c3ccc(F)cc3OC(C)C)n2)cc1C(N)=O	> 12500	
COc1ccc(F)cc1-c1ccnc(Nc2ccc(S(=O)(=O)Nc3nnc(C)s3)cc2)n1	9	
CCOc1cc(F)ccc1-c1ccnc(Nc2cc(C(N)=O)c(OC)cc2F)n1	> 12500	
CCOc1cccc(F)c1-c1ccnc(Nc2ccc(S(=O)(=O)Nc3onc(C)c3C)cc2)n1	2	inhibition [1]: 14%; IC50 [2]: > 12500 nM; inhibition [3]: 0%
COc1cccc(F)c1-c1ccnc(Nc2cccc(Cn3cnc4ccccc43)c2)n1	2	inhibition [1]: 44%; IC50 [2]: > 12500 nM; IC50 (RPMI-8226): 1780 nM; inhibition [3]: 0%
CCOc1cc(Cl)ccc1-c1ccnc(Nc2cc(C(N)=O)c(OC)cc2F)n1	> 12500	
CCOc1cc(F)ccc1-c1ccnc(Nc2ccc(S(=O)(=O)Nc3nccs3)cc2)n1	210	
COc1cccc(Cl)c1-c1ccnc(Nc2ccc(S(=O)(=O)Nc3onc(C)c3C)cc2)n1	25	
Cc1noc(NS(=O)(=O)c2ccc(Nc3nccc(-c4cccc(OC(C)C)c4F)n3)cc2)c1C	458	inhibition [4]: 65%
CCOc1cc(Cl)ccc1-c1ccnc(Nc2ccc(S(=O)(=O)Nc3nnc(C)s3)cc2)n1	5	
COc1cc(F)c(F)cc1-c1ccnc(Nc2ccc(S(=O)(=O)Nc3onc(C)c3C)cc2)n1	8	inhibition [4]: 37%
COc1ccccc1-c1ccnc(Nc2cccc(Cn3cnc4ccccc43)c2)n1	3	inhibition [1]: 9%; IC50 [2]: > 12500 nM; IC50 (RPMI-8226): 1340 nM; inhibition [3]: 0%
COc1cccc(F)c1-c1ccnc(Nc2ccc(S(=O)(=O)Nc3nccs3)cc2)n1	2	inhibition [1]: 46%; IC50 [2]: > 12500 nM; inhibition [3]: 0%
COc1ccccc1-c1ccnc(Nc2ccc(S(=O)(=O)Nc3nccs3)cc2)n1	33	IC50 (RPMI-8226): 24700 nM

The next lines start with results.

IC50 (CDK9/cyclin T1) [nM]	Compound	further results
> 12500	COc1cc(F)ccc1-c1ccnc(Nc2ccc(-c3c(C)noc3C)cc2)n1	
4	COc1ccccc1-c1ccnc(Nc2ccc(S(=O)(=O)Nc3noc(C)c3C)cc2)n1	IC50 (RPMI-8226): 12300 nM
3	COc1cc(F)ccc1-c1ccnc(Nc2ccc(S(=O)(=O)Nc3noc(C)c3C)cc2)n1	inhibition [1]: 0%; IC50 [2]: > 12500 nM; inhibition [3]: 0%
6	COc1cc(F)ccc1-c1ccnc(Nc2ccc(S(=O)(=O)Nc3nnc(C)s3)cc2)n1	
12	COc1cc(Cl)ccc1-c1ccnc(Nc2ccc(S(=O)(=O)Nc3onc(C)c3C)cc2)n1	
1	COc1cccc(F)c1-c1ccnc(Nc2ccc(S(=O)(=O)Nc3onc(C)c3C)cc2)n1	inhibition [1]: 44%; IC50 [2]: 12400 nM; IC50 (RPMI-8226): 26600 nM; inhibition [3]: 1%
55	Cc1noc(NS(=O)(=O)c2ccc(Nc3nccc(-c4ccc(F)cc4Cl)n3)cc2)c1C	
122	COc1cc(F)ccc1-c1ccnc(Nc2ccc(S(=O)(=O)Nc3nccs3)cc2)n1	
11	Cc1noc(NS(=O)(=O)c2ccc(Nc3nccc(-c4ccc(F)cc4F)n3)cc2)c1C	inhibition [4]: 55%
2	COc1cc(F)ccc1-c1ccnc(Nc2ccc(S(=O)(=O)Nc3onc(C)c3C)cc2)n1	inhibition [4]: 35%; inhibition [1]: 43%; IC50 [2]: > 12500 nM; inhibition [3]: 3%
8	CCOc1cc(F)ccc1-c1ccnc(Nc2ccc(S(=O)(=O)Nc3onc(C)c3C)cc2)n1	inhibition [4]: 11%
5	COc1cc(F)ccc1-c1ccnc(Nc2ccc(S(=O)(=O)Nc3noc4ccccc34)cc2)n1	IC50 (RPMI-8226): 15500 nM
3	COc1ccccc1-c1ccnc(Nc2ccc(S(=O)(=O)Nc3onc(C)c3C)cc2)n1	inhibition [4]: 56%; IC50 (RPMI-8226): 29200 nM
135	COc1cc(F)ccc1-c1ccnc(Nc2ccc(C(=O)Nc3onc(C)c3C)cc2)n1	
9	COc1ccc(-c2ccnc(Nc3ccc(S(=O)(=O)Nc4onc(C)c4C)cc3)n2)c(OC)c1	inhibition [4]: 34%
13	CSc1cc(F)ccc1-c1ccnc(Nc2ccc(S(=O)(=O)Nc3onc(C)c3C)cc2)n1	
6	Cc1cc(F)ccc1-c1ccnc(Nc2ccc(S(=O)(=O)Nc3onc(C)c3C)cc2)n1	
66	COc1cc(F)ccc1-c1ccnc(Nc2ccc(C(=O)O)cc2)n1	
49	Cc1noc(NS(=O)(=O)c2ccc(Nc3nccc(-c4ccc(F)cc4OC(C)C)n3)cc2)c1C	inhibition [4]: 13%
9	COc1ccc(F)cc1-c1ccnc(Nc2ccc(S(=O)(=O)Nc3onc(C)c3C)cc2)n1	
